Assay results as given in the supplement of paper PMC10307832.

What was measured:
Test in all cases: relative viability (nuclei count vs DMSO), 5 days (fraction); higher = more cells survive
ChaGo-K-1 = test system: ChaGo-K-1
In short: (§1)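 After 5 days of treatment, lung cancer cells in 1536-well plates were fixed and stained in a single step (final 0.05% Triton X-100, 1% formaldehyde, 1 ug/ml Hoechst) and their nuclei counted on 4× images. Treatment had been applied by pin tool the day after seeding as one drug alone or as a fixed anchor-drug dose with five library-drug doses (not always all listed) in √10 steps. Relative viability is the nuclei count of treated wells divided by that of vehicle wells, and values are medians of duplicate plates.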

NCI-H2126 = test system: NCI-H2126
In short: as §1

NCI-H2347 = test system: NCI-H2347
In short: as §1

NCI-H2170 = test system: NCI-H2170
In short: as §1

NCI-H1793 = test system: NCI-H1793
In short: as §1

LOU-NH91 = test system: LOU-NH91
In short: as §1

LCLC-103H = test system: LCLC-103H
In short: as §1

HOP-62 = test system: HOP-62
In short: as §1

NCI-H520 = test system: NCI-H520
In short: as §1

NCI-H1437 = test system: NCI-H1437
In short: as §1

NCI-H441 = test system: NCI-H441
In short: as §1

NCI-H2023 = test system: NCI-H2023
In short: as §1

NCI-H650 = test system: NCI-H650
In short: as §1

NCI-H23 = test system: NCI-H23
In short: as §1

NCI-H647 = test system: NCI-H647
In short: as §1

NCI-H727 = test system: NCI-H727
In short: as §1

SW 1573 = test system: SW 1573
In short: as §1

NCI-H460 = test system: NCI-H460
In short: as §1

EMC-BAC-2 = test system: EMC-BAC-2
In short: as §1

NCI-H2405 = test system: NCI-H2405
In short: as §1

EPLC-272H = test system: EPLC-272H
In short: as §1

NCI-H2009 = test system: NCI-H2009
In short: as §1

O=C(O)CCCCC(CCSCc1ccccc1)SCc1ccccc1 (centres undefined) [CPI-613] + Cc1nc(Nc2ncc(C(=O)Nc3c(C)cccc3Cl)s2)cc(N2CCN(CCO)CC2)n1 [Dasatinib] (partner 0.075 µM)
relative viability (ChaGo-K-1; first compound 5 µM): 0.583 | relative viability (ChaGo-K-1; first compound 15.81 µM): 0.594 | relative viability (ChaGo-K-1; first compound 50 µM): 0.594 | relative viability (ChaGo-K-1; first compound 158.11 µM): 0.336 | relative viability (ChaGo-K-1; first compound 500 µM): 0.146 | relative viability (NCI-H2126; first compound 5 µM): 0.561 | relative viability (NCI-H2126; first compound 15.81 µM): 0.58 | relative viability (NCI-H2126; first compound 50 µM): 0.605 | relative viability (NCI-H2126; first compound 158.11 µM): 0.331 | relative viability (NCI-H2126; first compound 500 µM): 0.107 | relative viability (NCI-H2347; first compound 5 µM): 0.295 | relative viability (NCI-H2347; first compound 15.81 µM): 0.308 | relative viability (NCI-H2347; first compound 50 µM): 0.227 | relative viability (NCI-H2347; first compound 158.11 µM): 0.315 | relative viability (NCI-H2347; first compound 500 µM): 0.327 | relative viability (NCI-H2170; first compound 5 µM): 0.586 | relative viability (NCI-H2170; first compound 15.81 µM): 0.566 | relative viability (NCI-H2170; first compound 50 µM): 0.612 | relative viability (NCI-H2170; first compound 158.11 µM): 0.461 | relative viability (NCI-H2170; first compound 500 µM): 0.167 | relative viability (NCI-H1793; first compound 5 µM): 0.327 | relative viability (NCI-H1793; first compound 15.81 µM): 0.317 | relative viability (NCI-H1793; first compound 50 µM): 0.421 | relative viability (NCI-H1793; first compound 158.11 µM): 0.165 | relative viability (NCI-H1793; first compound 500 µM): 0.018 | relative viability (LOU-NH91; first compound 5 µM): 0.564 | relative viability (LOU-NH91; first compound 15.81 µM): 0.475 | relative viability (LOU-NH91; first compound 50 µM): 0.532 | relative viability (LOU-NH91; first compound 158.11 µM): 0.481 | relative viability (LOU-NH91; first compound 500 µM): 0.499 | relative viability (LCLC-103H; first compound 5 µM): 0.463 | relative viability (LCLC-103H; first compound 15.81 µM): 0.472 | relative viability (LCLC-103H; first compound 50 µM): 0.41 | relative viability (LCLC-103H; first compound 158.11 µM): 0.422 | relative viability (LCLC-103H; first compound 500 µM): 0.271 | relative viability (HOP-62; first compound 5 µM): 0.625 | relative viability (HOP-62; first compound 15.81 µM): 0.68 | relative viability (HOP-62; first compound 50 µM): 0.659 | relative viability (HOP-62; first compound 158.11 µM): 0.521 | relative viability (HOP-62; first compound 500 µM): 0.0443 | relative viability (NCI-H520; first compound 5 µM): 0.188 | relative viability (NCI-H520; first compound 15.81 µM): 0.17 | relative viability (NCI-H520; first compound 50 µM): 0.202 | relative viability (NCI-H520; first compound 158.11 µM): 0.168 | relative viability (NCI-H520; first compound 500 µM): 0.149 | relative viability (NCI-H1437; first compound 5 µM): 0.388 | relative viability (NCI-H1437; first compound 15.81 µM): 0.314 | relative viability (NCI-H1437; first compound 50 µM): 0.381 | relative viability (NCI-H1437; first compound 500 µM): 0.304 | relative viability (NCI-H441; first compound 5 µM): 0.581 | relative viability (NCI-H441; first compound 15.81 µM): 0.52 | relative viability (NCI-H441; first compound 50 µM): 0.484 | relative viability (NCI-H441; first compound 158.11 µM): 0.3 | relative viability (NCI-H441; first compound 500 µM): 0.044 | relative viability (NCI-H2023; first compound 5 µM): 0.552 | relative viability (NCI-H2023; first compound 15.81 µM): 0.457 | relative viability (NCI-H2023; first compound 50 µM): 0.483 | relative viability (NCI-H2023; first compound 158.11 µM): 0.0687 | relative viability (NCI-H2023; first compound 500 µM): 0.0087 | relative viability (NCI-H650; first compound 5 µM): 0.474 | relative viability (NCI-H650; first compound 15.81 µM): 0.366 | relative viability (NCI-H650; first compound 50 µM): 0.424 | relative viability (NCI-H650; first compound 158.11 µM): 0.345 | relative viability (NCI-H650; first compound 500 µM): 0.361 | relative viability (NCI-H23; first compound 5 µM): 0.725 | relative viability (NCI-H23; first compound 15.81 µM): 0.635 | relative viability (NCI-H23; first compound 50 µM): 0.621 | relative viability (NCI-H23; first compound 158.11 µM): 0.293 | relative viability (NCI-H23; first compound 500 µM): 0.017 | relative viability (NCI-H647; first compound 5 µM): 0.197 | relative viability (NCI-H647; first compound 15.81 µM): 0.144 | relative viability (NCI-H647; first compound 50 µM): 0.146 | relative viability (NCI-H647; first compound 158.11 µM): 0.0387 | relative viability (NCI-H647; first compound 500 µM): 0.0112 | relative viability (NCI-H727; first compound 5 µM): 0.305 | relative viability (NCI-H727; first compound 15.81 µM): 0.35 | relative viability (NCI-H727; first compound 50 µM): 0.329 | relative viability (NCI-H727; first compound 158.11 µM): 0.275 | relative viability (NCI-H727; first compound 500 µM): 0.138 | relative viability (SW 1573; first compound 5 µM): 0.452 | relative viability (SW 1573; first compound 15.81 µM): 0.503 | relative viability (SW 1573; first compound 50 µM): 0.467 | relative viability (SW 1573; first compound 158.11 µM): 0.118 | relative viability (SW 1573; first compound 500 µM): 0.0385 | relative viability (NCI-H460; first compound 5 µM): 0.54 | relative viability (NCI-H460; first compound 15.81 µM): 0.454 | relative viability (NCI-H460; first compound 50 µM): 0.572 | relative viability (NCI-H460; first compound 158.11 µM): 0.334 | relative viability (NCI-H460; first compound 500 µM): 0.317 | relative viability (EMC-BAC-2; first compound 5 µM): 0.303 | relative viability (EMC-BAC-2; first compound 15.81 µM): 0.187 | relative viability (EMC-BAC-2; first compound 50 µM): 0.309 | relative viability (EMC-BAC-2; first compound 158.11 µM): 0.206 | relative viability (EMC-BAC-2; first compound 500 µM): 0.0369 | relative viability (NCI-H2405; first compound 5 µM): 0.205 | relative viability (NCI-H2405; first compound 15.81 µM): 0.176 | relative viability (NCI-H2405; first compound 50 µM): 0.203 | relative viability (NCI-H2405; first compound 158.11 µM): 0.201 | relative viability (NCI-H2405; first compound 500 µM): 0.209 | relative viability (EPLC-272H; first compound 5 µM): 0.317 | relative viability (EPLC-272H; first compound 15.81 µM): 0.334 | relative viability (EPLC-272H; first compound 50 µM): 0.449 | relative viability (EPLC-272H; first compound 158.11 µM): 0.219 | relative viability (EPLC-272H; first compound 500 µM): 0.0109 | relative viability (NCI-H2009; first compound 5 µM): 0.277 | relative viability (NCI-H2009; first compound 15.81 µM): 0.264 | relative viability (NCI-H2009; first compound 50 µM): 0.278 | relative viability (NCI-H2009; first compound 158.11 µM): 0.0869 | relative viability (NCI-H2009; first compound 500 µM): 0.029
